From US8088819B2, “Derivatives of substituted 3-phenyl-1-(phenylthienyl)propan-1-ones and of 3-phenyl-1-(phenylfuranyl) propan-1-ones, preparation and use” (priority 2006, dated 2012)

Experiments:
hPPARdelta [1] = biological target: T1, hPPARdelta (Homo sapiens, UniProt Q03181); assay: PPAR activation: Gal4-hPPARδ chimera luciferase transactivation in COS-7 cells, Method 1; assay type: cell-based; details: COS-7, 24 h; for Emax: maximum percentage response relative to the reference GW501516, read-out: hPPARdelta % max
T1 construct: expressed in transfected cells; host or cells: COS-7 (monkey kidney fibroblasts)
T1 sequence (Q03181 211-439 limits assumed): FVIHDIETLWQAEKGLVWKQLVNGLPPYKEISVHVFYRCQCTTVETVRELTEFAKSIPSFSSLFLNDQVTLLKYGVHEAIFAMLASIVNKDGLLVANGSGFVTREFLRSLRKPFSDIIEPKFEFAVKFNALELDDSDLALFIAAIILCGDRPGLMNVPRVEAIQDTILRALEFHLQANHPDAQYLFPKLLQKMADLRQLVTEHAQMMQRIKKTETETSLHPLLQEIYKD
Method: (§1) The activation of the PPARs was evaluated in vitro on a line of monkey kidney fibroblasts (COS-7) by measuring the transcriptional activity of chimeras constituted of the DNA binding domain of the Gal4 transcription factor of yeast and the ligand binding domain of the various PPARs. The compounds were tested at doses between 10^−5 and […] on the chimeras Gal4-PPARα, γ or δ, and the corresponding EC50 values were determined.
(§2) The COS-7 cells were obtained from the ATCC and were cultivated in DMEM medium supplemented with 10% (v/v) of fetal calf serum, 100 U/ml of penicillin (Gibco, Paisley, UK) and 2 mM of L-glutamine (Gibco, Paisley, UK). The cells were incubated at 37° C. in a humid atmosphere containing 5% CO2.
(§3) The plasmids Gal4(RE)_TkpGL3, pGal4-hPPARα, pGal4-hPPARγ, pGal4-hPPARδ and pGal4-φ are described in the literature (Raspe E et al., 1999). The constructs pGal4-hPPARα, pGal4-hPPARγ and pGal4-hPPARδ were obtained by cloning DNA fragments amplified by PCR corresponding to the DEF domains of the human nuclear receptors PPARα, PPARγ and PPARδ in the pGal4-φ vector.
(§4) The COS-7 cells in suspension were transfected with 150 ng of DNA per well, with a pGal4-PPAR/Gal4(RE)_TkpGL3 ratio of 1/10, in the presence of 10% fetal calf serum. The cells were seeded in 96-well plates (4×10^4 cells/well) and then incubated at 37° C. for 24 hours. Activation with the test compounds is carried out for 24 h at 37° C. in serum-free medium. At the end of the experiment, the cells were lysed and the luciferase activity was determined using the Steady-Lite™ HTS (Perkin Elmer) following the supplier's recommendations.

hPPARgamma [2] = biological target: T2, hPPARgamma (Homo sapiens, UniProt P37231); assay: PPAR activation: Gal4-hPPARγ chimera luciferase transactivation in COS-7 cells, Method 1; assay type: cell-based; details: COS-7, 24 h; for Emax: maximum percentage response relative to the reference rosiglitazone, read-out: hPPARgamma % max
T2 construct: expressed in transfected cells; host or cells: COS-7 (monkey kidney fibroblasts)
T2 sequence (P37231 238-503 limits assumed): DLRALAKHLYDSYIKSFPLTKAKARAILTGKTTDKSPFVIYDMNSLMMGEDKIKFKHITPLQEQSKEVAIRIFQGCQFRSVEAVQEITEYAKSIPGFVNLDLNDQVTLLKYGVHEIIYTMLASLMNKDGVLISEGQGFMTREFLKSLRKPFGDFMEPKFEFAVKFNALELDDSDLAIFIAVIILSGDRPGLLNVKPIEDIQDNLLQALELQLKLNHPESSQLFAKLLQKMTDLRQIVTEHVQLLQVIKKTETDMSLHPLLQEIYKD
Method: as §1, §2, §3, §4

hPPARalpha [3] = biological target: T3, hPPARalpha (Homo sapiens, UniProt Q07869); assay: PPAR activation: Gal4-hPPARα chimera luciferase transactivation in COS-7 cells, Method 1; assay type: cell-based; details: COS-7, 24 h; for Emax: maximum percentage response relative to the reference phenofibric acid, read-out: hPPARalpha % max
T3 construct: expressed in transfected cells; host or cells: COS-7 (monkey kidney fibroblasts)
T3 sequence (Q07869 239-466 limits assumed): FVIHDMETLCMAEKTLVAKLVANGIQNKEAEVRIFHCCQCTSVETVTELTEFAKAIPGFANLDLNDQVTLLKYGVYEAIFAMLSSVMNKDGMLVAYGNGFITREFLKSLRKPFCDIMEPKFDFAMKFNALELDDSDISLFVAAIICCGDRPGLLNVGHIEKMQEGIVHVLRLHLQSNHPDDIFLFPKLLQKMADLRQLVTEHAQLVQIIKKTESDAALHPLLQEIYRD
Method: as §1, §2, §3, §4

hPPARalpha [4] = biological target: T3, hPPARalpha; assay: PPAR activation: Gal4-hPPARα chimera luciferase transactivation in COS-7 cells, Method 2; assay type: cell-based; details: COS-7, 24 h; for EC50: 1% Ultroser; for Emax: maximum percentage response relative to the reference phenofibric acid, read-out: hPPARalpha % max
Method: as §1
(§5) The principle, the cells and the plasmids used for example 5 were also employed in this example. Only the application of the transfection stage is slightly different. The details are presented below.
(§6) The adherent COS-7 cells are transfected with 40 μg of DNA per 225 cm^2 dish, with a pGal4-PPAR/Gal4(RE)_TkpGL3 ratio of 1/10, in the presence of 10% fetal calf serum. The cells are then detached and seeded in the absence of serum in 384-well plates (2×10^4 cells/well) and incubated for 4 hours at 37° C. The compounds are then diluted in a 96-well plate and transferred to the 384-well plate. Activation with the test compounds is carried out for an additional 24 h at 37° C. in the presence of 1% of Ultroser™ lipid-free synthetic serum (Biosepra). These last 2 stages are automated using a Genesis Freedom 200™ station (Tecan). At the end of the experiment, the cells are lysed and the luciferase activity is determined using the Steady-Lite™ HTS (Perkin Elmer) following the supplier's recommendations.

hPPARdelta [5] = biological target: T1, hPPARdelta; assay: PPAR activation: Gal4-hPPARδ chimera luciferase transactivation in COS-7 cells, Method 2; assay type: cell-based; details: COS-7, 24 h; for EC50: 1% Ultroser; for Emax: maximum percentage response relative to the reference GW501516, read-out: hPPARdelta % max
Method: as §1, §5, §6

hPPARgamma [6] = biological target: T2, hPPARgamma; assay: PPAR activation: Gal4-hPPARγ chimera luciferase transactivation in COS-7 cells, Method 2; assay type: cell-based; details: COS-7, 24 h, Method 2; for Emax: maximum percentage response relative to the reference rosiglitazone, read-out: hPPARgamma % max; for EC50: 1% Ultroser, read-out: hPPARgamma EC50
Method: The activation of the PPARs was evaluated in vitro on a line of monkey kidney fibroblasts (COS-7) by measuring the transcriptional activity of chimeras constituted of the DNA binding domain of the Gal4 transcription factor of yeast and the ligand binding domain of the various PPARs.
Only the application of the transfection stage is slightly different. The details are presented below.
as §6

Row | EC50 (hPPARdelta [1]) | Emax (hPPARdelta [1]) | EC50 (hPPARgamma [2]) | Emax (hPPARgamma [2]) | EC50 (hPPARalpha [3]) | Emax (hPPARalpha [3]) | melting point | EC50 (hPPARalpha [4]) | Emax (hPPARalpha [4]) | EC50 (hPPARdelta [5]) | Emax (hPPARdelta [5]) | Emax (hPPARgamma [6]) | EC50 (hPPARgamma [6]) | SMILES
1 | 45 nM | 93% | 660 nM | 24% | 43 nM | 46% | 135 to 136 °C | – | – | – | – | – | – | CC(C)(Oc1ccc(CCC(=NO)c2ccc(-c3ccc(C(F)(F)F)cc3)s2)c(Cl)c1Cl)C(=O)O (mixture of isomers) [Compound 49, 2-(2,3-dichloro-4-(3-(hydroxyimino)-3-(5-(4-(trifluoromethyl)-phenyl)thien-2-yl)propyl)phenoxy)-2-methylpropanoic acid]
2 | – | – | – | – | – | – | – | 7860 nM | 41% | 530 nM | 92% | 55% | 4110 nM | CC(C)(Oc1ccc(CCC(OCc2ccc(I)cc2)c2ccc(-c3ccc(C(F)(F)F)cc3)s2)c(Cl)c1Cl)C(=O)O (centres unmarked) [Compound 6, 2-(4-(3-(4-iodobenzyloxy)-3-(5-(4-(trifluoromethyl)phenyl)thien-2-yl)propyl)-2,3-dichlorophenoxy)-2-methylpropanoic acid]
3 | 19 nM | 84% | 280 nM | 41% | 6 nM | 54% | 169 to 171 °C | – | – | – | – | – | – | CCC(Oc1ccc(CCC(=O)c2ccc(-c3ccc(C(F)(F)F)cc3)s2)c(Cl)c1Cl)C(=O)O (centres unmarked) [Compound 9, 2-(2,3-dichloro-4-(3-oxo-3-(5-(4-(trifluoromethyl)phenyl)thien-2-yl)propyl)phenoxy)butanoic acid]
4 | – | 1% | 490 nM | 58% | 977 nM | 20% | 167 to 169 °C | – | – | – | – | – | – | CC(C)(CCCOc1ccc(CCC(=O)c2ccc(-c3ccc(C(F)(F)F)cc3)s2)c(Cl)c1Cl)C(=O)O [Compound 13, 5-(2,3-dichloro-4-(3-oxo-3-(5-(4-(trifluoromethyl)phenyl)thien-2-yl)propyl)phenoxy)-2,2-dimethylpentanoic acid]
5 | 253 nM | 88% | 5660 nM | 32% | 163 nM | 46% | 217 to 219 °C | – | – | – | – | – | – | O=C(O)COc1ccc(CCC(=O)c2ccc(-c3ccc(C(F)(F)F)cc3)s2)c(Cl)c1Cl [Compound 15, 2-(2,3-dichloro-4-(3-oxo-3-(5-(4-(trifluoromethyl)phenyl)thien-2-yl)propyl)phenoxy)acetic acid]
6 | – | 0% | 190 nM | 27% | 228 nM | 5% | 189 to 191 °C | – | – | – | – | – | – | O=C(CCc1ccc(OC(C(=O)O)c2ccccc2)c(Cl)c1Cl)c1ccc(-c2ccc(C(F)(F)F)cc2)s1 (centres unmarked) [Compound 17, 2-(2,3-dichloro-4-(3-oxo-3-(5-(4-(trifluoromethyl)phenyl)thien-2-yl)propyl)phenoxy)-2-phenylacetic acid]
7 | 15 nM | 85% | 180 nM | 27% | 1 nM | 47% | 136 to 137 °C | – | – | – | – | – | – | CC(C)(Oc1ccc(CCC(=O)c2ccc(-c3ccc(C(F)(F)F)cc3)s2)cc1Cl)C(=O)O [Compound 19, 2-(2-chloro-4-(3-oxo-3-(5-(4-(trifluoromethyl)phenyl)thien-2-yl)-propyl)phenoxy)-2-methylpropanoic acid]
8 | 8 nM | 97% | 80 nM | 63% | 17 nM | 50% | 104 to 106 °C | – | – | – | – | – | – | CC(C)(Oc1ccc(CCC(=O)c2ccc(-c3ccc(C(F)(F)F)cc3)s2)c(Cl)c1)C(=O)O [Compound 21, 2-(3-chloro-4-(3-oxo-3-(5-(4-(trifluoromethyl)phenyl)thien-2-yl)-propyl)phenoxy)-2-methylpropanoic acid]
9 | 589 nM | 77% | 2820 nM | 30% | 1310 nM | 47% | – | – | – | – | – | – | – | O=C(O)COc1ccc(CCC(OCc2ccccc2)c2ccc(-c3ccc(C(F)(F)F)cc3)s2)cc1F (centres unmarked) [Compound 27, 2-(4-(3-(benzyloxy)-3-(5-(4-(trifluoromethyl)phenyl)thien-2-yl)-propyl)-2-fluorophenoxy)acetic acid]
10 | – | – | – | – | – | – | – | 50 nM | 51% | 1530 nM | 80% | 45% | 3930 nM | CCC(Oc1ccc(CCC(O)c2ccc(-c3ccc(C(F)(F)F)cc3)s2)cc1F)C(=O)O (centres unmarked) [Compound 30, 2-(2-fluoro-4-(3-hydroxy-3-(5-(4-(trifluoromethyl)phenyl)thien-2-yl)propyl)phenoxy)butanoic acid]
11 | – | – | – | – | – | – | – | 610 nM | 49% | 10 nM | 76% | 36% | 1490 nM | CCOC(CCc1ccc(OC(C)(C)C(=O)O)c(Cl)c1Cl)c1ccc(-c2ccc(C(F)(F)F)cc2)s1 (centres unmarked) [Compound 41, 2-(2,3-dichloro-4-(3-ethoxy-3-(5-(4-(trifluoromethyl)phenyl)thien-2-yl)propyl)phenoxy)-2-methylpropanoic acid]
12 | – | – | – | – | – | – | – | 2000 nM | 28% | 260 nM | 82.1% | 47% | 890 nM | CC(C)(Oc1ccc(CCC(OCC2CCCCC2)c2ccc(-c3ccc(C(F)(F)F)cc3)s2)c(Cl)c1Cl)C(=O)O (centres unmarked) [Compound 42, 2-(2,3-dichloro-4-(3-(cyclohexylmethoxy)-3-(5-(4-(trifluoromethyl)phenyl)thien-2-yl)propyl)phenoxy)-2-methylpropanoic acid]
13 | 216 nM | 67% | 970 nM | 56% | 227 nM | 47% | – | – | – | – | – | – | – | CCC(Oc1ccc(CCC(OCc2ccccc2)c2ccc(-c3ccc(C(F)(F)F)cc3)s2)cc1F)C(=O)O (centres unmarked) [Compound 70, 2-(4-(3-(benzyloxy)-3-(5-(4-(trifluoromethyl)phenyl)thien-2-yl)propyl)-2-fluorophenoxy)butanoic acid]
